# Reference: patent US6737383B1, “Herbicidal oxadiazolidines” (priority 1999, dated 2004)
# Tests used:
# smallflower flatsedge = assay: Test B flood test smallflower flatsedge; type: in vivo, Cyperus difformis
# Method in brief: (§1)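 Read-out is a visual response score from 0 (no effect) to 10 (complete control), assigned by comparison with untreated controls. Treatment was applied at the 2-leaf stage, and plants stayed in the greenhouse for twelve to sixteen days before scoring.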
# rice = assay: Test B flood test rice; type: in vivo, Oryza sativa
# Method in brief: as §1
# duck salad = assay: Test B flood test duck salad; type: in vivo, Heteranthera limosa
# Method in brief: as §1
# purple nutsedge = assay: Test B pre/postemergence purple nutsedge; type: in vivo, Cyperus rotundus; details: for Nutsedge plant response rating: scale of 0 to 10 where 0 is no effect and 10 is complete control
# Method in brief: (§2)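 Response is a visual 0-to-10 score relative to untreated plants, where 0 means no effect and 10 means complete control, taken twelve to sixteen days after application. Treatments went onto soil at planting and onto foliage of 1- to 4-leaf plants, using a surfactant-containing non-phytotoxic solvent.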
# cocklebur = assay: Test B pre/postemergence cocklebur; type: in vivo, Xanthium strumarium; details: for Cocklebur plant response rating: scale of 0 to 10 where 0 is no effect and 10 is complete control
# Method in brief: as §2
# blackgrass = assay: Test B pre/postemergence blackgrass; type: in vivo, Alopecurus myosuroides; details: for Blackgrass plant response rating: scale of 0 to 10 where 0 is no effect and 10 is complete control
# Method in brief: as §2
# velvetleaf = assay: Test B pre/postemergence velvetleaf; type: in vivo, Abutilon theophrasti; details: for Velvetleaf plant response rating: scale of 0 to 10 where 0 is no effect and 10 is complete control
# Method in brief: as §2
# crabgrass = assay: Test B pre/postemergence crabgrass; type: in vivo, Digitaria sanguinalis; details: for Crabgrass plant response rating: scale of 0 to 10 where 0 is no effect and 10 is complete control
# Method in brief: as §2
# surinam grass = assay: Test B pre/postemergence surinam grass; type: in vivo, Brachiaria decumbens; details: for B. signalgrass plant response rating: scale of 0 to 10 where 0 is no effect and 10 is complete control
# Method in brief: as §2
# wild oat = assay: Test B pre/postemergence wild oat; type: in vivo, Avena fatua; details: for Wild oats plant response rating: scale of 0 to 10 where 0 is no effect and 10 is complete control
# Method in brief: as §2
# corn = assay: Test B pre/postemergence corn; type: in vivo, Zea mays; details: for Corn plant response rating: scale of 0 to 10 where 0 is no effect and 10 is complete control
# Method in brief: as §2
# wheat = assay: Test B pre/postemergence wheat; type: in vivo, Triticum aestivum; details: for Wheat plant response rating: scale of 0 to 10 where 0 is no effect and 10 is complete control
# Method in brief: as §2
# sugar beet = assay: Test B pre/postemergence sugar beet; type: in vivo, Beta vulgaris; details: for Sugarbeets plant response rating: scale of 0 to 10 where 0 is no effect and 10 is complete control
# Method in brief: as §2
# bedstraw = assay: Test B pre/postemergence bedstraw; type: in vivo, Galium aparine; details: Preemergence; for Bedstraw plant response rating: scale of 0 to 10 where 0 is no effect and 10 is complete control
# Method in brief: as §2
# soybean = assay: Test B pre/postemergence soybean; type: in vivo, Glycine max; details: for Soybean plant response rating: scale of 0 to 10 where 0 is no effect and 10 is complete control
# Method in brief: as §2
# bamyardgrass = assay: Test B flood test barnyardgrass; type: in vivo, Echinochloa crus-galli
# Method in brief: as §1
# [1] = Rate 62 g/ha, flood test species, Pre-emergence, visual evaluation after twelve to sixteen days
# [2] = Rate 125 g/ha, under heading Pre-emergence, flood test species, visual evaluation after twelve to sixteen days
# [3] = Rate 250 g/ha, Pre-emergence, flood-test species, scale 0 to 10, 0 is no effect, 10 is complete control
# [4] = Rate 500 g/ha, Pre-emergence, flood test species, scale 0 to 10 (0 no effect, 10 complete control)
# [5] = Postemergence, Rate 125 g/ha, scale 0 to 10, 0 is no effect, 10 is complete control
# [6] = Postemergence, Rate 250 g/ha, scale 0 to 10, 0 is no effect, 10 is complete control
# [7] = Preemergence, Rate 62 g/ha, scale 0 to 10 (0 no effect, 10 complete control)
# [8] = Rate 500 g/ha, Postemergence, scale 0 to 10, 0 no effect, 10 complete control
smiles,measurement,setting,value
CC(C)N(C(=O)n1oc(=O)n(CC2CCOC2)c1=O)c1ccc(F)cc1 (stereo not drawn) [Compound 375],"Plant response rating, S. Flatsedge (0 to 10 scale, 0 is no effect, 10 is complete control)",smallflower flatsedge; [1],0
same,"S. Flatsedge plant response rating (0 to 10 scale, 0 is no effect, 10 is complete control)",smallflower flatsedge; [2],0
same,S. Flatsedge plant response rating,smallflower flatsedge; [3],0
same,S. Flatsedge plant response rating,smallflower flatsedge; [4],0
same,"Plant response rating, Rice (0 to 10 scale, 0 is no effect, 10 is complete control)",rice; [1],0
same,"Rice plant response rating (0 to 10 scale, 0 is no effect, 10 is complete control)",rice; [2],0
same,Rice plant response rating,rice; [3],0
same,Rice plant response rating,rice; [4],0
same,"Plant response rating, Ducksalad (0 to 10 scale, 0 is no effect, 10 is complete control)",duck salad; [1],0
same,"Ducksalad plant response rating (0 to 10 scale, 0 is no effect, 10 is complete control)",duck salad; [2],0
same,Ducksalad plant response rating,duck salad; [3],0
same,Ducksalad plant response rating,duck salad; [4],0
same,"Plant response rating, Nutsedge",purple nutsedge; [5],0
same,"Plant response rating, Nutsedge",purple nutsedge; [6],0
same,"Plant response rating, Nutsedge",purple nutsedge; [7],0
same,Nutsedge plant response rating (0 to 10 scale),"purple nutsedge; Preemergence, Rate 125 g/ha",0
same,Nutsedge plant response rating,"purple nutsedge; Preemergence, Rate 250 g/ha",0
same,Nutsedge plant response rating,"purple nutsedge; Preemergence, Rate 500 g/ha",0
same,Nutsedge plant response rating,"purple nutsedge; Rate 62 g/ha, Postemergence",0
same,"Plant response rating, Nutsedge",purple nutsedge; [8],6
same,"Plant response rating, Cocklebur",cocklebur; [5],0
same,"Plant response rating, Cocklebur",cocklebur; [6],0
same,"Plant response rating, Cocklebur",cocklebur; [7],0
same,Cocklebur plant response rating (0 to 10 scale),"cocklebur; Preemergence, Rate 125 g/ha",0
same,Cocklebur plant response rating,"cocklebur; Preemergence, Rate 250 g/ha",0
same,Cocklebur plant response rating,"cocklebur; Preemergence, Rate 500 g/ha",0
same,Cocklebur plant response rating,"cocklebur; Rate 62 g/ha, Postemergence",0
same,"Plant response rating, Cocklebur",cocklebur; [8],0
same,"Plant response rating, Blackgrass",blackgrass; [5],5
same,"Plant response rating, Blackgrass",blackgrass; [6],5
same,"Plant response rating, Blackgrass",blackgrass; [7],3
same,Blackgrass plant response rating (0 to 10 scale),"blackgrass; Preemergence, Rate 125 g/ha",5
same,Blackgrass plant response rating,"blackgrass; Preemergence, Rate 250 g/ha",9
same,Blackgrass plant response rating,"blackgrass; Preemergence, Rate 500 g/ha",10
same,Blackgrass plant response rating,"blackgrass; Rate 62 g/ha, Postemergence",2
same,"Plant response rating, Blackgrass",blackgrass; [8],8
same,"Plant response rating, Velvetleaf",velvetleaf; [5],0
same,"Plant response rating, Velvetleaf",velvetleaf; [6],2
same,"Plant response rating, Velvetleaf",velvetleaf; [7],0
same,Velvetleaf plant response rating (0 to 10 scale),"velvetleaf; Preemergence, Rate 125 g/ha",3
same,Velvetleaf plant response rating,"velvetleaf; Preemergence, Rate 250 g/ha",4
same,Velvetleaf plant response rating,"velvetleaf; Preemergence, Rate 500 g/ha",7
same,Velvetleaf plant response rating,"velvetleaf; Rate 62 g/ha, Postemergence",0
same,"Plant response rating, Velvetleaf",velvetleaf; [8],4
same,"Plant response rating, Crabgrass",crabgrass; [5],4
same,"Plant response rating, Crabgrass",crabgrass; [6],7
same,"Plant response rating, Crabgrass",crabgrass; [7],7
same,Crabgrass plant response rating (0 to 10 scale),"crabgrass; Preemergence, Rate 125 g/ha",8
same,Crabgrass plant response rating,"crabgrass; Preemergence, Rate 250 g/ha",10
same,Crabgrass plant response rating,"crabgrass; Preemergence, Rate 500 g/ha",10
same,Crabgrass plant response rating,"crabgrass; Rate 62 g/ha, Postemergence",0
same,"Plant response rating, Crabgrass",crabgrass; [8],9
same,"Plant response rating, B. signalgrass",surinam grass; [5],0
same,"Plant response rating, B. signalgrass",surinam grass; [6],2
same,"Plant response rating, B. signalgrass",surinam grass; [7],0
same,"B. signalgrass plant response rating (0 to 10 scale, 0 is no effect, 10 is complete control)","surinam grass; Preemergence, Rate 125 g/ha",0
same,B. signalgrass plant response rating,"surinam grass; Preemergence, Rate 250 g/ha",4
same,B. signalgrass plant response rating,"surinam grass; Preemergence, Rate 500 g/ha",8
same,B. signalgrass plant response rating,"surinam grass; Rate 62 g/ha, Postemergence",0
same,"Plant response rating, B. signalgrass",surinam grass; [8],8
same,"Plant response rating, Wild oats",wild oat; [5],0
same,"Plant response rating, Wild oats",wild oat; [6],6
same,"Plant response rating, Wild oats",wild oat; [7],0
same,Wild oats plant response rating (0 to 10 scale),"wild oat; Preemergence, Rate 125 g/ha",4
same,Wild oats plant response rating,"wild oat; Preemergence, Rate 250 g/ha",9
same,Wild oats plant response rating,"wild oat; Preemergence, Rate 500 g/ha",9
same,Wild oats plant response rating,"wild oat; Rate 62 g/ha, Postemergence",0
same,"Plant response rating, Wild oats",wild oat; [8],8
same,"Plant response rating, Corn",corn; [5],0
same,"Plant response rating, Corn",corn; [6],0
same,"Plant response rating, Corn",corn; [7],0
same,Corn plant response rating (0 to 10 scale),"corn; Preemergence, Rate 125 g/ha",2
same,Corn plant response rating,"corn; Preemergence, Rate 250 g/ha",2
same,Corn plant response rating,"corn; Preemergence, Rate 500 g/ha",7
same,Corn plant response rating,"corn; Rate 62 g/ha, Postemergence",0
same,"Plant response rating, Corn",corn; [8],2
same,"Plant response rating, Wheat",wheat; [5],0
same,"Plant response rating, Wheat",wheat; [6],2
same,"Plant response rating, Wheat",wheat; [7],0
same,Wheat plant response rating (0 to 10 scale),"wheat; Preemergence, Rate 125 g/ha",0
same,Wheat plant response rating,"wheat; Preemergence, Rate 250 g/ha",2
same,Wheat plant response rating,"wheat; Preemergence, Rate 500 g/ha",3
same,Wheat plant response rating,"wheat; Rate 62 g/ha, Postemergence",0
same,"Plant response rating, Wheat",wheat; [8],6
same,"Plant response rating, Sugarbeets",sugar beet; [5],0
same,"Plant response rating, Sugarbeets",sugar beet; [6],0
same,"Plant response rating, Sugarbeets",sugar beet; [7],0
same,Sugarbeets plant response rating (0 to 10 scale),"sugar beet; Preemergence, Rate 125 g/ha",2
same,Sugarbeets plant response rating,"sugar beet; Preemergence, Rate 250 g/ha",4
same,Sugarbeets plant response rating,"sugar beet; Preemergence, Rate 500 g/ha",7
same,Sugarbeets plant response rating,"sugar beet; Rate 62 g/ha, Postemergence",0
same,"Plant response rating, Sugarbeets",sugar beet; [8],3
same,"Plant response rating, Bedstraw","bedstraw; Rate 62 g/ha, scale 0 to 10 (0 no effect, 10 complete control)",6
same,Bedstraw plant response rating (0 to 10 scale),bedstraw; Rate 125 g/ha,10
same,Bedstraw plant response rating,bedstraw; Rate 250 g/ha,10
same,Bedstraw plant response rating,bedstraw; Rate 500 g/ha,10
same,"Plant response rating, Soybean",soybean; [5],1
same,"Plant response rating, Soybean",soybean; [6],1
same,"Plant response rating, Soybean",soybean; [7],0
same,Soybean plant response rating (0 to 10 scale),"soybean; Preemergence, Rate 125 g/ha",0
same,Soybean plant response rating,"soybean; Preemergence, Rate 250 g/ha",0
same,Soybean plant response rating,"soybean; Preemergence, Rate 500 g/ha",0
same,Soybean plant response rating,"soybean; Rate 62 g/ha, Postemergence",1
same,"Plant response rating, Soybean",soybean; [8],2
same,"Plant response rating, Barnyardgrass (0 to 10 scale, 0 is no effect, 10 is complete control)",bamyardgrass; [1],0
same,"Barnyardgrass plant response rating (0 to 10 scale, 0 is no effect, 10 is complete control)",bamyardgrass; [2],0
same,Barnyardgrass plant response rating,bamyardgrass; [3],0
same,Barnyardgrass plant response rating,bamyardgrass; [4],0
